# Measured values: patent US20070212412A1, “STABLE SOLID FORMULATION OF SERTINDOLE” (H. Lundbeck A/S, priority 2005, published 2007)
# Key:
# [1] = test system: α1-adrenergic receptors; conditions: cited from earlier work
# [2] = test system: serotonin 5-HT2; conditions: cited from earlier work
# [3] = molecular target: dopamine D2 (Homo sapiens, UniProt P14416); conditions: cited from earlier work
# [4] = Light stability study of film-coated sertindole tablets (HPLC degradation products); type: physicochemical; conditions: film-coated tablets with white film-coating layer containing titanium dioxide, 2-4% film-layer relative to tablet core weight
# Source text: 10 tablets of each sample were placed in a light cabinet (Heraeus Suntest CPS+) and were exposed to light providing an overall illumination of not less than 1.2 million lux hours, and an integrated near ultraviolet energy of not less than 200 watt hours/m^2. The tablets were placed directly in petri dishes in a single layer. […] The dark control was placed beside the sample and was protected against light, wrapped in aluminium foil. After light exposure the tablets (sample and dark control) were analysed for degradation products by HPLC analysis.
# The samples of 10 tablets were disintegrated by the means of 0.1 M acetic acid. Next acetonitrile was added for extraction and subsequently the samples were made to volume with methanol/water (50/50). Final concentration: 0.4 mg/ml.
# Samples from the light stability studies were analysed by HPLC.
# Reversed phase chromatography was performed using a LiChrospher 100 RP-8, 5 μm, 250×4 mm ID with pre-column: LiChrospher 100 RP-8, 5 μm.
# The mobile phase consisted of Tetrahydrofurane/acetonitrile/25 mM phosphate buffer pH 7.2 (7/43/50). […]
# Quantification of the degradation products was done from area %, using the normalization factor 0.9 for Lu 26-115 (1-(2-(4-(5-Chloro-1-(4-fluorophenyl)-1H-indol-3-yl)-1-piperidinyl-1-oxide)ethyl)-2-imidazolidinone) and the normalization factor 1.0 for other impurities.
# [5] = clinical development programme; cited from earlier work
# Chain of dopamine D2 (P14416 whole entry): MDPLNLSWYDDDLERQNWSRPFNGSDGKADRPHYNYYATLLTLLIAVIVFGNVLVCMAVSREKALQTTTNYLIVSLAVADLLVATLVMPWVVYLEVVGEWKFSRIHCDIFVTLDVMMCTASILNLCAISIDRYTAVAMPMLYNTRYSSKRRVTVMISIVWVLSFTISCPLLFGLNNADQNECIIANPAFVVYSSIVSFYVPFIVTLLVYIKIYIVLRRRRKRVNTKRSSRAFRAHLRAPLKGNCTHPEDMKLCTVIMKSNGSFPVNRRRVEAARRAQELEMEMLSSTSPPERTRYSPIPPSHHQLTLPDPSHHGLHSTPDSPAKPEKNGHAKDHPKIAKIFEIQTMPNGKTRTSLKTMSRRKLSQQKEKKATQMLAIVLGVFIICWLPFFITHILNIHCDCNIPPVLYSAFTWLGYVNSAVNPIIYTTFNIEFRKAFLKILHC
smiles,measurement,setting,value
O=C1NCCN1CCN1CCC(c2cn(-c3ccc(F)cc3)c3ccc(Cl)cc23)CC1 [Sertindole],affinity for α1-adrenergic receptors,[1],high affinity
same,affinity for serotonin 5-HT2,[2],high affinity
same,affinity for dopamine D2,[3],high affinity
same,light sensitivity,[4],undergoes a light-induced degradation process
same,effect on symptoms of schizophrenia,[5],effect against both positive and negative symptoms of schizophrenia
same,incidence of extrapyramidal side effects,[5],placebo-level incidence
same,tolerability,[5],well-tolerated
